Experiment [1] concerns ESBLs-E. coli. As to the kind of experiment: Bacterial load (CFU) in organs of septic mice. Type of experiment: in vivo, male Balb/c mice. As to conditions: text 1.5 mg kg^−1, methods 4 mg kg^−1; ten hours after infection; mean ± SE. As to the method: Two mice in each group were sacrificed 10 h after infection to study the bacterial clearance. The liver and kidney were harvested aseptically, one kidney and one lobe of liver of each mouse were weighed, and homogenized in 500 μl sterile saline solution, then 50 μl homogenate sample of each mice was performed serial tenfold dilutions to a 10^–5 dilution. Carefully spread 100 μL of each dilution onto a M–H agarose plate using a glass spreader. Incubate plates at 37 °C overnight and calculate the bacterial load. Colony counts were expressed as CFU g^−1 of tissue.

Experiment [2] relates to ESBLs-E. coli. As to the kind of experiment: Survival assay in mouse sepsis model. Type of experiment: in vivo, male Balb/c mice. As to conditions: text 1.5 mg kg^−1, methods and Fig. 5 legend 4 mg/kg; i.p. at 0.5 and 6 h after infection; n = 10. As to the method:
Male Balb/c mice (6–8 weeks old and weighing 18–22 g) were used in this experiment. The experimental and animal care procedures were approved by the Animal Care and Use Committee of Fourth Military Medical University. All methods were carried out strictly in accordance with the approved guidelines. 4 × 10^5 CFU ESBLs-E. coli in 400 μl M–H broth were administrated intraperitoneally into the mice to construct a sepsis model. Then, the mice were randomly divided to ten groups, which were administered intraperitoneally with 400 μL solutions containing 0.5 (based on ASOs), 1 or 1.5 mg kg^−1 DP-AD7anti-acpP and the counterpart DP-AD7mismatch, 1.5 mg kg^−1 L-DP-AD7anti-acpP, 1.5 mg kg^−1 LF2000-NPsanti-acpP, 4 mg kg^−1 ceftazidime or PBS at 0.5 and 6 h after infection. The surviving mice in each group were monitored every 6 h for the first day, afterwards, monitored every 12 h for 7 days day after infection, and the survival ratio was analyzed by Kaplan–Meier estimator.

Experiment [3] concerns E. coli, ESBLs-E. coli, S. aureus and MRSA. Put plainly: Delivery efficiency by flow cytometry, tested strains together. Type of experiment: cell-based. The conditions noted are these: FAM-labeled, 1 h, 37 °C, flow cytometry (Fig. S9, S10). As to the method: To measure the delivery efficiency, FAM-labeled DP-AD were added to bacterial cultures (approximately 5 × 10^6 CFU in 300 μl M–H broth) and incubated at 37 °C for 1 h away from light. The bacterial solutions were centrifuged at 2500 g at 4 °C for 5 min and washed twice with phosphate buffered saline (PBS) before analyzing them using the BL1 (green) channel in flow cytometry (Novocyte, Acer, USA). Data were analyzed using Flowjo software (version 10.0.7, Tree Star, Ashland, OR, USA). Free FAM-labeled ASOs and LF2000-NPs were used as the negative and positive control, respectively.
To measure the delivery rate of DP-AD7 in different types of bacteria, the bacteria (approximately 5 × 10^6 CFU in 300 μl M–H broth) were incubated with FAM-labeled DP-AD7 for 5, 10, 30 or 60 min at 37 °C or at 4 °C for 60 min in dark, then the bacterial solutions were processed, measured and analyzed as described above.
Background: Flow cytometry measures light scatter and fluorescence of single cells or particles in a stream.

For the molecule `CC(C)(O/N=C(\C(=O)N[C@@H]1C(=O)N2C(C(=O)[O-])=C(C[n+]3ccccc3)CS[C@H]12)c1csc(N)n1)C(=O)O` [ceftazidime], in the experiment on ESBLs-E. coli [1], the “Average bacterial load in the kidney, ceftazidime” value is reported as 8.41 ± 1.60 × 10^7 CFU g^−1. Further, the “Survival rate of septic mice, ceftazidime” value in the experiment with ESBLs-E. coli [2] is 30%.

As for “Ac-LWALWK(Ac)K(Ac)K(Ac)RRHRRRHR [L-DPP, linear counterpart of DPP7, amphipathic, 9 positive charge and 2 His residues]”, the “Capacity to deliver ASOs into bacteria” value in experiment [3] is “failure”.

These data come from paper PMC8977034, “Amphipathic dendritic poly-peptides carrier to deliver antisense oligonucleotides against multi-drug resistant bacteria in vitro and in vivo” (Journal of Nanobiotechnology, 2022).
